Entries after “also recorded” stand apart in the source; their conditions may differ. Read-outs that look alike come from different tables or passages of the source.
How the values were obtained:
[1] = Molecular stability in whole blood (HPLC of blood extracts); assay type: in vitro ADME, human; conditions: for Main Peak / Total / X1 (second peak) / X2 (second peak): 250 μM agent, mean of two
Description: To test the molecular stability of the agents, blood was incubated with each agent at […] for 4 hours. Samplings at the indicated incubation times were extracted and CHC -AP4 A or thio-CHCl-AP4 A were assayed in an HPLC (Waters 600E pump and controller) with quartenary amine anion exchange column (Whatman Partisil 10) and analysed (Beckman System Gold). The retention times for CHCl-AP4 A and thio-CHCl-AP4 A were 3.39 and 5.95, respectively. Peak areas were integrated and used to construct a standard curve for a concentration range (1, 2, 4, 6, 8 and 10 μM). Both CHCl-AP4 A and thio-CHCl-AP4 A were pure, as observed by a single peak on HPLC, and by a linear relationship between the concentration of the agent and HPLC peak areas. Normal human blood anticoagulated with 0.38% sodium citrate was incubated in the presence of250 μM CHCl-AP4 A or thio-CHCl-AP4 A at […] for 4 hours. Blood samples were extracted with 3% perchloric acid and neutralized with K2 CO3. The extracts were kept at -80° C. until an assay using an HPLC. The values in Table 9 represent a mean of two experiments and are expressed in nmol/ml blood. […] An estimated quantity of CHCl-AP4 A major peak indicated a slow degradation showing a reduction of 30% after 4 hours incubation. At least 80% of degradation product, possibly chloromethylene monoadenosine triphosphate (AppCp) is associated with the second peak (X1). […] The second peak of the blood extract with thio-CHCl-AP4 A may be an isomer (X2), e.g., monothio compound (Aps pCppA or AppCpps A). It was not detected by HPLC of the pure compound, but registered a small portion (<10%) in the blood extraction at time 0 and about 20% of the major peak thereafter.

[2] = system: Cytoplasmic Calcium Ion (Ca^++) Mobilization in platelets; assay: Cytoplasmic calcium ion mobilization in platelets (Indo-1, flow cytometer); assay type: cell-based, human; conditions: 6.7 μM ADP
Description: (§1) Unless otherwise provided below, the experimental procedures were performed according to the procedures provided in U.S. Pat. No. 5,049.550 (Zamecnik '550), the entire contents of which are incorporated herein by reference. Some alternative procedures (e.g., release reaction, PF3 assays) and a number of additional studies also are provided (e.g., cytoplasmic calcium mobilization, fibrinogen binding site, agonists other than ADP, platelet cAMP and distribution of CHCl-AP4 A into blood components). Blood was collected in a 0.1 volume of 3.8% sodium citrate from healthy human volunteers who had abstained from antiplatelet agents for at least 10 days. Platelet rich plasma (PRP) was separated by a gradual centrifugation and adjusted to 3.3×10^8 platelets per ml plasma. PRP has been utilized in the Examples unless otherwise stated.
An increment of cytoplasmic Ca^++ in the platelets represents an activated state. Indo-1 acetomethyl ester (Indo-1) commonly has been utilized as the reagent to detect intracellular free Ca^++. Indo-1 reacts with Ca^++ and produces fluorescence which can be monitored in a dual wavelength (408/485) flow cytometer (Coulter EPIC Systems). Platelets were incubated with Indo-1 at 37° C. for 45 min. Excess Indo-1 in the medium was removed by gel-filtration method. Indo-1-loaded platelets were then activated by 6.7 μM ADP in the absence or presence of thio-CHCl-AP4 A (3.3 μM) or CHCl-AP4 A (6.7 μM). Fluorescence intensity of the platelets was monitored and plotted against platelet number. The histograms generated from the plots were analyzed. Unstimulated platelets registered fluorescence intensity (FI) between 42 and 250 with a peak at 133 (base line control).

[3] = Distribution of ^125 I-labeled CHCl-AP4 A: plasma & washes; assay type: binding, human; conditions: 23 μM, 22° C., 30 minutes; mean of two
Description: There are, however, a variety of purinoceptors on other cell types. AP4 A analogues may bind not only to platelets but also to the erythrocytes and leukocytes when whole blood is treated with the agents. […] Platelets were separated by a gradual centrifugation, the packed red cells with buffy coats (leukocytes) were mixed, and fractionated by means of histopaque gradient separation (A. Boyum, Scand J. Clin. Lab. Invest. 21(suppl 97):77 (1968)). The cell fractions were washed twice and final suspensions were counted for cell number and the radioactivity. Percent distribution was calculated based on the CBC data of whole blood. Binding sites are expressed in the values per cells.

platelet cAMP level = assay: Level of intracellular platelet cAMP (etheno-cAMP, HPLC); assay type: cell-based, human; conditions: for platelet cAMP level: 37° C., 5 min, control 31.6; for effect on the platelet cAMP level: in words
Description: as §1
The inhibitory effect of cAMP on platelet aggregation has been known as a counteraction of calcium ion mobilization. Accordingly, the inhibitory effects of the agents with respect to a cAMP mediated mechanism was tested. PRP was incubated with saline (control), agents (at 20 μM and 100 μM), or forskolin (10 μM) at 37° C. for 5 min. After incubation, extracts were made using Ba(OH)2 and ZnSO4. Cyclic AMP in the extracts was converted into the etheno-cAMP derivative, and the levels were estimated by HPLC using a fluorescence detector (W. Wojcik et al., J. Cyclic Nucleotide Res. 7:27-35 (1981)). The level of cAMP in an unknown extract was determined by extrapolation from a standard graph. A linear relationship between the cAMP level in the extracted samples and fluorescence detection was observed. […] However, this increase may not be a specific effect. Although adenosine contamination in the tested AP4 A agents was not detected, it is possible that either cellular adenosine nucleotide metabolic products or contaminated adenosine in the tested agents may be responsible for the elevated cAMP level.

[4] = system: ADP-induced platelet aggregation; assay: ADP-induced platelet aggregation in platelet-rich plasma (turbidimetric method of Born, aggregometer); assay type: cell-based, human; conditions: for IC50: ADP-induced aggregation, PRP, mean of three (*) or two determinations
Description: as §1
An initial screening was performed for inhibitory effects of several agents (including, e.g., thio-CHCl-AP4 A and CHCl-AP4 A as reference agent)) on platelet aggregation induced by ADP. Platelet aggregation was measured with platelet-rich plasma (PKP) by the turbidimetric method of Born (J. Physiol. 162:67, 1962) in an aggregometer (Chrono-log, Model 530 VS). Platelet aggregation induced by 5 μM ADP in the absence or presence of 5 μM agents was examined. […] The IC50 value of the CHCl-AP4 A (reference agent) was consistent with the value reported previously (P. Zamecnik et al., Proc. Nat'l. Acad. Sci. USA 89:2370-2373 (1992)).

Structure (SMILES) | Main Peak ([1]; 0 min) [nmol/ml blood] | Total ([1]; 0 min) [nmol/ml blood] | Main Peak ([1]; 60 min) [nmol/ml blood] | Total ([1]; 60 min) [nmol/ml blood] | Main Peak ([1]; 120 min) [nmol/ml blood] | Total ([1]; 120 min) [nmol/ml blood] | Main Peak ([1]; 240 min) [nmol/ml blood] | Total ([1]; 240 min) [nmol/ml blood] | platelet cAMP level (platelet cAMP level; 20 μM agent) [nM] | effect on the platelet cAMP level (platelet cAMP level; 20 μM) | platelet cAMP level (platelet cAMP level; 100 μM agent) [nM] | effect on the platelet cAMP level (platelet cAMP level; 100 μM) | IC50 [4] [nM] | further results
Nc1ncnc2c1ncn2[C@@H]1O[C@H](COP(=O)(O)OP(=O)(O)C(Cl)P(=O)(O)OP(=O)(O)OC[C@H]2O[C@@H](n3cnc4c(N)ncnc43)[C@H](O)[C@@H]2O)[C@@H](O)[C@H]1O (some centres unmarked) [CHCl-AP4 A] | 249.2 | 249.2 | 249.0 | 274.8 | 222.0 | 258.6 | 173.2 | 236.3 | 30.6 | no effect | 56.7 | moderate increase | 3280 | X1 (second peak) ([1]; 0 min): trace; X1 (second peak) ([1]; 60 min): 25.8 nmol/ml blood; X1 (second peak) ([1]; 120 min): 36.6 nmol/ml blood; X1 (second peak) ([1]; 240 min): 63.3 nmol/ml blood; recovery at 1 h, 250 µM ([1]; human, blood, 60 minutes, read-out: Total extraction efficiency): 110%; metabolised at 4 h, 250 µM ([1]; human, blood, after 4 hours incubation, read-out: reduction of major peak (slow degradation)): 30%; degradation product associated with the second peak (X1) ([1]; whole blood): At least 80%; effect on ADP-induced Ca^++ mobilization ([2]; 6.7 μM CHCl-AP4 A): blocked completely; Distribution (%) [3]: 95.5%
Nc1ncnc2c1ncn2[C@@H]1O[C@H](COP(O)(=S)OP(=O)(O)C(Cl)P(=O)(O)OP(O)(=S)OC[C@H]2O[C@@H](n3cnc4c(N)ncnc43)[C@H](O)[C@@H]2O)[C@@H](O)[C@H]1O (some centres unmarked) [Thio-CHCl-AP4 A, P^1, P^4 -dithio -P^2 -P^3 monochloromethylene 5', 5'" diadenosine P^1, P^4 -tetraphosphate] | 157.7 | 172.0 | 172.3 | 205.9 | 180.0 | 211.4 | 173.7 | 202.0 | 28.6 | no effect | 54.4 | moderate increase | 810 | X2 (second peak) ([1]; 0 min): 14.3 nmol/ml blood; X2 (second peak) ([1]; 60 min): 33.6 nmol/ml blood; X2 (second peak) ([1]; 120 min): 31.4 nmol/ml blood; X2 (second peak) ([1]; 240 min): 38.3 nmol/ml blood; second peak (X2), % of the major peak ([1]; after time 0): about 20 % of the major peak; stability in blood ([1]; at least 4 hours at 37° C., in words): very stable in blood for at least 4 hours at 37 °C; recovery at 2 h, 250 µM ([1]; human, blood, 120 minutes, read-out: Total extraction efficiency): 85%; recovery at 1 h, 250 µM ([1]; human, blood, samples after 60 minutes, read-out: Extraction efficiency): 81 to 85%; recovery at 0 h, 250 µM ([1]; human, blood, time 0, read-out: Extraction efficiency): 69%; second peak (X2) portion in the blood extraction ([1]; time 0): < 10%; effect on ADP-induced Ca^++ mobilization ([2]; 3.3 μM thio-CHCl-AP4 A): blocked completely; in vitro platelet aggregation inhibitory activity relative to AP4 A and analogs ([4]; compared to AP4 A, known analogs, non-thio counterpart, in words, listed as Aps pCHClpps A): nearly an order of magnitude greater than the inhibitory activity of naturally-occurring AP4 A; also recorded: significantly greater than the activities of known AP4 A analogs; also recorded: significantly greater platelet aggregation inhibitory activity than that of its corresponding non-thio counterpart

Source: patent US5681823A, “P^1, P^4 -dithio-P^2 -P^3 -monochloromethylene 5', 5'"-diadenosine P^1, P^4 -tetraphosphate as antithrombotic agent” (PRP Inc., priority 1996, dated 1997)
